According to US8198438B2, “Pyrrolotriazine kinase inhibitors” (Bristol-Myers Squibb Company, priority 2007, dated 2012):

Key:
Assay type in all cases: biochemical
[1] = target: GST-Met (Homo sapiens, UniProt P08581); experiment: Met Kinase Assay; details: 1 μM ATP; 33P γ-ATP, poly(Glu/Tyr); 1 h at 30° C.
Experimental: Kinase reactions consisted of 0.75 ng of baculovirus expressed GST-Met, 3 ug poly(Glu/Tyr) (Sigma), 0.12 μCi 33P γ-ATP, 1 μM ATP in 30 μl kinase buffer (20 mm TRIS-C1, 5 mM MnCl2, 0.1 mg/ml BSA, 0.5 mM DTT). Reactions were incubated for 1 h at 30° C. and stopped by the addition of cold trichloroacetic acid (TCA) to a final concentration 8%. TCA precipitates were collected onto GF/C unifilter plates using a Filtermate universal harvester and the filters were quantitated using a TopCount 96-well liquid scintillation counter. Dose response curves were generated to determine the concentration required to inhibit 50% of kinase activity (IC50). Compounds were dissolved at 10 mM in dimethylsulfoxide (DMSO) and evaluated at seven concentrations, each in triplicate.

[2] = target: T1, GSK3-β (Homo sapiens, UniProt P49841); experiment: GSK3-β kinase assay; details: ATP 30 μM; His-GSK3B 2.4 nM; Caliper LabChip 3000; read-out: GSK-3β IC50
T1 construct: His
T1 sequence (P49841 whole entry): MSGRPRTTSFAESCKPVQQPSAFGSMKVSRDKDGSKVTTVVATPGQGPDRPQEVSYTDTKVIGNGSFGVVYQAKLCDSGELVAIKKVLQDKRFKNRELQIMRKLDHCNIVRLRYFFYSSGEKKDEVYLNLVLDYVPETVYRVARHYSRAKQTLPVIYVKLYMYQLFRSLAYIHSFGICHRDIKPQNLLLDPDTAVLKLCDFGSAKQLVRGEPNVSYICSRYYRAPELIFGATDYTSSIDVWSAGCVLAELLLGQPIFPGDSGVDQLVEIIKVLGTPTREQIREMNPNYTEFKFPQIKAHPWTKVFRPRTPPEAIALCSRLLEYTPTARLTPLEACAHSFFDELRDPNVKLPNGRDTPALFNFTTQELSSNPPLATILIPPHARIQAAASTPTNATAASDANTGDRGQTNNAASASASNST
Experimental: (§1) The assays were performed in U-bottom 384-well plates. The final assay volume was 30 μl prepared from 15 μl additions of enzyme and substrates (fluoresceinated peptide FL-GSK substrate and ATP) and test compounds in assay buffer (100 mM HEPES pH 7.2, 10 mM MgCl2, 0.015% Brij35, 25 mM β-glycerolphosphate and 4 mM DTT). The reaction was initiated by the combination of GSK3-β with substrates and test compounds. The reaction was incubated at room temperature for 60 min. and terminated by adding 30 μl of 35 mM EDTA to each sample. The reaction mixture was analyzed on the Caliper LabChip 3000 (Caliper, Hopkinton, Mass.) by electrophoretic separation of the fluorescent substrate and phosphorylated product Inhibition data were calculated by comparison to no enzyme control reactions for 100% inhibition and vehicle-only reactions for 0% inhibition. The final concentration of reagents in the assays is ATP, 30 μM; FL-GSK substrate, 1.5 μM; His-GSK3B, 2.4 nM; and DMSO, 1.6%.

[3] = target: CDK2E (Homo sapiens, UniProt P24941); experiment: CDK 2/Cyclin E Kinase Assay; details: ATP 30 μM; CDK2E 0.2 nM; Caliper LabChip 3000
Experimental: A. CDK 2/Cyclin E Kinase Assay
(§2) The assays were performed in U-bottom 384-well plates. The final assay volume was 30 μl prepared from 15 μl additions of enzyme and substrates (fluoresceinated CDK2E substrate peptide and ATP) and test compounds in assay buffer (100 mM HEPES pH 7.4, 10 mM MgCl2, 0.015% Brij35 and 4 mM DTT). The reaction was initiated by the combination of bacterially expressed, CDK2E with substrates and test compounds. The reaction was incubated at room temperature for 60 min. and terminated by adding 30 μl of 35 mM EDTA to each sample. The reaction mixture was analyzed on the Caliper LabChip 3000 by electrophoretic separation of the fluorescent substrate and phosphorylated product Inhibition data were calculated by comparison to no enzyme control reactions for 100% inhibition and vehicle-only reactions for 0% inhibition. The final concentration of reagents in the assays is ATP, 30 μM; FL-peptide, 1.5 μM; CDK2E, 0.2 nM; and DMSO, 1.6%. Dose response curves were generated to determine the concentration required inhibiting 50% of kinase activity (IC50). Compounds were dissolved at 10 mM in dimethylsulfoxide (DMSO) and evaluated at eleven concentrations, each in duplicate. IC50 values were derived by non-linear regression analysis.

[4] = target: T2, FLT3 (Homo sapiens, UniProt P36888); experiment: FLT3 kinase assay; details: ATP 200 μM; FLT3 4.5 nM; Caliper LabChip 3000
T2 sequence (P36888 27-993): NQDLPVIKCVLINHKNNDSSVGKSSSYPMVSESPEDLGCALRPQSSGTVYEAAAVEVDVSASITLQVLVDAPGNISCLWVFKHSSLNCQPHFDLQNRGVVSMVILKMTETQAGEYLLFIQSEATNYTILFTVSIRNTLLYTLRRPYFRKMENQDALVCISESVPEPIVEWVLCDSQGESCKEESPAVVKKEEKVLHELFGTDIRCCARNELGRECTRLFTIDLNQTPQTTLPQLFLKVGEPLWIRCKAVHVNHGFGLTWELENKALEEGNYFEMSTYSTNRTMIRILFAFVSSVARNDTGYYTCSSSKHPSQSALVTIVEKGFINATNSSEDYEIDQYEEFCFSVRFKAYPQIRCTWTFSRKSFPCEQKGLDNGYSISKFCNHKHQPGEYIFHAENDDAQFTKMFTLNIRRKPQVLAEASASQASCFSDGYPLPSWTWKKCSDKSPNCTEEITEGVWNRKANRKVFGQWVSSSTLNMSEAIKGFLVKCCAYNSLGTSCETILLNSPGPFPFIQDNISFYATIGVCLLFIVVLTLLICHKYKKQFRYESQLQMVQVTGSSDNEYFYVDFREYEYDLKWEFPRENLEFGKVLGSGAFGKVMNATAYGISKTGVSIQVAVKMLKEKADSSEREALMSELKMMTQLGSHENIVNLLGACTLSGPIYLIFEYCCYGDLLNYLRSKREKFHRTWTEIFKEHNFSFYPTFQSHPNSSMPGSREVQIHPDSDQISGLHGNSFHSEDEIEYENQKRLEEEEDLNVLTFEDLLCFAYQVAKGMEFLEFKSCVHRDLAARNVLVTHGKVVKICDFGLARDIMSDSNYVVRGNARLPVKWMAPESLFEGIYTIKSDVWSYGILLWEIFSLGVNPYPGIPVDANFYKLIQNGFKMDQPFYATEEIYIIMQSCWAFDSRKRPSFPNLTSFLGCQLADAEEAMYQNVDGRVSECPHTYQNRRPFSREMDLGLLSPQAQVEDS
Experimental: as §2, with “FLT3” for “CDK2E”, “FLT3” for “bacterially expressed, CDK2E”, “product.” for “product”, “200 μM,” for “30 μM;”, “FLT3, 4.5 nM” for “CDK2E, 0.2 nM;”

[5] = target: IGF1-receptor (Homo sapiens, UniProt P08069); experiment: IGF1-Receptor Tyrosine Kinase Assay; details: ATP 25 μM; IGF1-Receptor 14 nM; Caliper LabChip 3000; read-out: IGF1R IC50
Chain of IGF1-receptor (P08069 31-1367): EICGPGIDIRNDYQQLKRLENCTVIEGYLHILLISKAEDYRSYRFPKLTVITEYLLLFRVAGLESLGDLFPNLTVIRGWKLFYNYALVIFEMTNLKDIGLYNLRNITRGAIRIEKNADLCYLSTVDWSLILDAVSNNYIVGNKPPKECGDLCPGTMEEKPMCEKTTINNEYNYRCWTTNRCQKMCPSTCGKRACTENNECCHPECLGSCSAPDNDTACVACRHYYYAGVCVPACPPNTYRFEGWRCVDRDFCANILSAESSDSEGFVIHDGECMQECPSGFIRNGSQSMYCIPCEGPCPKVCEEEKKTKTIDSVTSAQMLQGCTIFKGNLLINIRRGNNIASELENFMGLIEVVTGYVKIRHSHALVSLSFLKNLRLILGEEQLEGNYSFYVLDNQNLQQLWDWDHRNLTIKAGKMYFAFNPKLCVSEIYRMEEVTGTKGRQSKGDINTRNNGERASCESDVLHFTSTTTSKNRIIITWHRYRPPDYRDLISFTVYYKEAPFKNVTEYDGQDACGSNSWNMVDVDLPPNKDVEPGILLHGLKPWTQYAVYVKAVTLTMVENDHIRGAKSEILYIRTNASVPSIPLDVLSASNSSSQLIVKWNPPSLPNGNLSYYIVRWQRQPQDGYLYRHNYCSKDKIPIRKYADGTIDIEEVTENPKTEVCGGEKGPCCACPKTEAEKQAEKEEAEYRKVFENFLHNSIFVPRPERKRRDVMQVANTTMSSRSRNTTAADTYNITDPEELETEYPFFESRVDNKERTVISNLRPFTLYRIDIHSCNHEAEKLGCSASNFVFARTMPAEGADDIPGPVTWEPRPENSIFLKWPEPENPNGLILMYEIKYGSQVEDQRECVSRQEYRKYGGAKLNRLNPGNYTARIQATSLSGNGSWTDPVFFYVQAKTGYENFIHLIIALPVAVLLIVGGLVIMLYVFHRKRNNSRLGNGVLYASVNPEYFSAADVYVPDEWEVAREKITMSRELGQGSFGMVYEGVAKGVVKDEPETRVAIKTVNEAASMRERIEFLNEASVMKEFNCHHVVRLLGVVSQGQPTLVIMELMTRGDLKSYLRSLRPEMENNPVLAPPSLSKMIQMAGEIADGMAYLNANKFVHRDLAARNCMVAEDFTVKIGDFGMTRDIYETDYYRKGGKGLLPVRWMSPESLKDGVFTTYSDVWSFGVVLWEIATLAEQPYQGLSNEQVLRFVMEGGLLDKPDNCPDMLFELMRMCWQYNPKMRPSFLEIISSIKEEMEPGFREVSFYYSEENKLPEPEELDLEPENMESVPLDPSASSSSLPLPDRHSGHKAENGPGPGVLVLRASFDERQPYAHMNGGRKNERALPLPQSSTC
Experimental: D. IGF1-Receptor Tyrosine Kinase Assay
The assays were performed in U-bottom 384-well plates. The final assay volume was 30 μl prepared from 15 μl additions of enzyme and substrates (fluoresceinated IGF1R substrate peptide and ATP) and test compounds in assay buffer (100 mM HEPES pH 7.4, 10 mM MnCl2, 0.015% Brij35 and 4 mM DTT). The reaction was initiated by the combination of IGF1-receptor with substrates and test compounds. The reaction was incubated at room temperature for 60 min. and terminated by adding 30 μl of 35 mM EDTA to each sample. The reaction mixture was analyzed on the Caliper LabChip 3000 by electrophoretic separation of the fluorescent substrate and phosphorylated product. Inhibition data were calculated by comparison to no enzyme control reactions for 100% inhibition and vehicle-only reactions for 0% inhibition. The final concentration of reagents in the assays is ATP, 25 μM; FL-peptide, 1.5 μM; IGF1-Receptor, 14 nM; and DMSO, 1.6%. Dose response curves were generated to determine the concentration required inhibiting 50% of kinase activity (IC50). Compounds were dissolved at 10 mM in dimethylsulfoxide (DMSO) and evaluated at eleven concentrations, each in duplicate. IC50 values were derived by non-linear regression analysis

[6] = target: JAK2 (Homo sapiens, UniProt O60674); experiment: JAK2 kinase assay; details: ATP 30 μM; activated JAK2; Caliper LabChip 3000
Chain of JAK2 (O60674 whole entry): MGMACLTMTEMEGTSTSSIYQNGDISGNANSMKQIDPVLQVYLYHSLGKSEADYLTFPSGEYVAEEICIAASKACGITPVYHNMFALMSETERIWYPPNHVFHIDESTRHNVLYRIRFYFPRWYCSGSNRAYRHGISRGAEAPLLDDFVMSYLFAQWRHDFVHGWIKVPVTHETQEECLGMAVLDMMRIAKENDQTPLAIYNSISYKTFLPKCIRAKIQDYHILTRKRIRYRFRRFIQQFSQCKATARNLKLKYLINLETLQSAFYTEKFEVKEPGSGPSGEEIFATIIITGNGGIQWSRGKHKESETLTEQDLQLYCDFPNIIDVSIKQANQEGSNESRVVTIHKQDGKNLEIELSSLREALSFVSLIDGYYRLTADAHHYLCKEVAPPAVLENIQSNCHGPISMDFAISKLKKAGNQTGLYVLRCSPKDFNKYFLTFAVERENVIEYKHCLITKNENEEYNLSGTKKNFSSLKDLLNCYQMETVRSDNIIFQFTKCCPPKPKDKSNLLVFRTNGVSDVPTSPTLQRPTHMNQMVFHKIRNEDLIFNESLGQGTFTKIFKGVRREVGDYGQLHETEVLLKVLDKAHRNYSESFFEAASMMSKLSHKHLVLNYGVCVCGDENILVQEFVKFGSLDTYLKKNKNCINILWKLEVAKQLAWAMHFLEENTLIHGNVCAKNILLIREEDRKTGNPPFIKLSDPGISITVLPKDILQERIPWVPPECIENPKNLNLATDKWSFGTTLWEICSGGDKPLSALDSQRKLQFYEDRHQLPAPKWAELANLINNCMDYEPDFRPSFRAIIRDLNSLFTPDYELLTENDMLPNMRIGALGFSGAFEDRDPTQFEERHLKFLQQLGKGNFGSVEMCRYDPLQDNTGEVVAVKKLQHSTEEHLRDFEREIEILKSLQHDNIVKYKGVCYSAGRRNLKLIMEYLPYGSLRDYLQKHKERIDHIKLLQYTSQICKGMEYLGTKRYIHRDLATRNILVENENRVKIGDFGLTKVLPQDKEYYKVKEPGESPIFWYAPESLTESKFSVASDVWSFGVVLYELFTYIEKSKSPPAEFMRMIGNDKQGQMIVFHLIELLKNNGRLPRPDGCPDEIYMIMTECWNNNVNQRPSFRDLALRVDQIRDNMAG
Experimental: as §1, with “FL-JAK2” for “FL-GSK”, “activated JAK2” for “GSK3-β”, “product.” for “product”, “FL-JAK2 peptide,” for “FL-GSK substrate,”, “[…], 2.6” for “His-GSK3B, 2.4”

Chain of GST-Met (P08581 25-1390): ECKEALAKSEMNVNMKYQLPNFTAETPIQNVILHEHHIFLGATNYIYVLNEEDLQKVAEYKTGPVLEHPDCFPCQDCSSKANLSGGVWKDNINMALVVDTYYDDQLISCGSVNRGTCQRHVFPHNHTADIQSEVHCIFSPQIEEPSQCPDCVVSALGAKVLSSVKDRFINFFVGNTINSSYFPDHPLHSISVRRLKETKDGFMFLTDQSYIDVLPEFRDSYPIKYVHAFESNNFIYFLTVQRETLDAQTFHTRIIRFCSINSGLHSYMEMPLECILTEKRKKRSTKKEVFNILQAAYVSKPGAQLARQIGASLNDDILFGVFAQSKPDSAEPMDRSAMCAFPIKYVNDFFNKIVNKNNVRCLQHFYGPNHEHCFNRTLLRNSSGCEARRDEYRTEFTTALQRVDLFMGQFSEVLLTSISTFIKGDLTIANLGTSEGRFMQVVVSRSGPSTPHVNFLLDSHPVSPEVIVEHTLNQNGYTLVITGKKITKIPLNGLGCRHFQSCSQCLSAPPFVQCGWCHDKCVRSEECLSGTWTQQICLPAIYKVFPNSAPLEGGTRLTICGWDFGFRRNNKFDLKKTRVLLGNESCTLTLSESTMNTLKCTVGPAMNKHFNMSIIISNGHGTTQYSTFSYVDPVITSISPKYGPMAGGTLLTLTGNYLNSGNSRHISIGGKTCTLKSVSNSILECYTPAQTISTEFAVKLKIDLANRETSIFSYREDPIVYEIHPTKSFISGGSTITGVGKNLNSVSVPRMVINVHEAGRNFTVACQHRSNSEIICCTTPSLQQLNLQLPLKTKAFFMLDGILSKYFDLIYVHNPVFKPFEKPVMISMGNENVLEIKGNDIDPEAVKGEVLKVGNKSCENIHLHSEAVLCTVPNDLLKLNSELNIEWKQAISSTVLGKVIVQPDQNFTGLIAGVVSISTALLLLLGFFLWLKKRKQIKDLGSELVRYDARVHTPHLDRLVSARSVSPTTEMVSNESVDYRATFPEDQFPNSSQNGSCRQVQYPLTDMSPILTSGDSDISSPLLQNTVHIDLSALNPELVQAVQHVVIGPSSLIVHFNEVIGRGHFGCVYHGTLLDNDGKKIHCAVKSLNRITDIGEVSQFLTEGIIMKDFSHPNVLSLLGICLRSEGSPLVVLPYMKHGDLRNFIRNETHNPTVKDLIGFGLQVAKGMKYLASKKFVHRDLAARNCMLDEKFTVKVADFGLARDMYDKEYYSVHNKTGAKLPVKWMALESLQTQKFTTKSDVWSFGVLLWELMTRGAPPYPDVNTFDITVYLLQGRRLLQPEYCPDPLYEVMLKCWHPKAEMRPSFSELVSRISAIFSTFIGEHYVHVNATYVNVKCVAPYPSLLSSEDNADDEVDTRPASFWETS

Structure (SMILES) | IC50 [1] | IC50 [2] | IC50 [3] | IC50 [4] | IC50 [5] | IC50 [6]
O=C(c1ccc(F)nc1)N1CCC[C@H]1c1nc(Nc2cc(C3CC3)[nH]n2)c2cccn2n1 [Example 1, (S)-(2-(4-(5-Cyclopropyl-1H-pyrazol-3-ylamino)pyrrolo[1,2-f][1,2,4]triazin-2-yl)pyrrolidin-1-yl)(6-fluoropyridin-3-yl)methanone] | 28 nM | 290 nM | 1870 nM | 29 nM | – | –
O=C(C1CCNCC1)N1CCC[C@H]1c1nc(Nc2cc(C3CC3)[nH]n2)c2cccn2n1 [Example 6, (S)-(2-(4-(5-Cyclopropyl-1H-pyrazol-3-ylamino)pyrrolo[1,2-f][1,2,4]triazin-2-yl)pyrrolidin-1-yl)(piperidin-4-yl)methanone] | 10500 nM | 92 nM | 615 nM | 97 nM | 4050 nM | 10700 nM
O=C(c1cc[nH]n1)N1CCC[C@H]1c1nc(Nc2cc(C3CC3)[nH]n2)c2cccn2n1 [Example 7, (S)-(2-(4-(5-Cyclopropyl-1H-pyrazol-3-ylamino)pyrrolo[1,2-f][1,2,4]triazin-2-yl)pyrrolidin-1-yl)(1H-pyrazol-3-yl)methanone] | 1170 nM | 51 nM | 54 nM | 4 nM | 68 nM | 36 nM
CC(C)(C)OC(=O)N1CCC(C(=O)N2CCC[C@@H]2c2nc(Nc3cc(C4CC4)[nH]n3)c3cccn3n2)CC1 [Example 13, (R)-tert-Butyl 4-(2-(4-(5-cyclopropyl-1H-pyrazol-3-ylamino)pyrrolo[1,2-f][1,2,4]triazin-2-yl)pyrrolidine-1-carbonyl)piperidine-1-carboxylate] | – | 4450 nM | 17400 nM | 308 nM | 314 nM | 22000 nM

Now those with a lower IC50 [2], led by results:

IC50 [1] | IC50 [2] | IC50 [3] | IC50 [4] | IC50 [5] | IC50 [6] | Structure (SMILES)
170 nM | 24 nM | 88 nM | 1 nM | 5 nM | – | O=C(c1nccs1)N1CCC[C@H]1c1nc(Nc2cc(C3CC3)[nH]n2)c2cccn2n1 [Example 2, (S)-(2-(4-(5-Cyclopropyl-1H-pyrazol-3-ylamino)pyrrolo[1,2-f][1,2,4]triazin-2-yl)pyrrolidin-1-yl)(thiazol-2-yl)methanone]
1780 nM | 20 nM | 5 nM | 1 nM | 135 nM | – | CC(=O)N1CCC[C@H]1c1nc(Nc2cc(C3CC3)[nH]n2)c2cccn2n1 [Example 4, (S)-1-(2-(4-(5-Cyclopropyl-1H-pyrazol-3-ylamino)pyrrolo[1,2-f][1,2,4]-triazin-2-yl)pyrrolidin-1-yl)ethanone]
10800 nM | 3 nM | 256 nM | 6 nM | 4930 nM | 4480 nM | O=C(c1cnccn1)N1CCC[C@@H]1c1nc(Nc2cc(C3CC3)[nH]n2)c2cccn2n1 [Example 12, (R)-(2-(4-(5-Cyclopropyl-1H-pyrazol-3-ylamino)pyrrolo[1,2-f][1,2,4]triazin-2-yl)pyrrolidin-1-yl)(pyrazin-2-yl)methanone]
6330 nM | 11 nM | 162 nM | 24 nM | 2520 nM | 324 nM | O=C(c1nccs1)N1CCC[C@@H]1c1nc(Nc2cc(C3CC3)[nH]n2)c2cccn2n1 [Example 15, (R)-(2-(4-(5-Cyclopropyl-1H-pyrazol-3-ylamino)pyrrolo[1,2-f][1,2,4]triazin-2-yl)pyrrolidin-1-yl)(thiazol-2-yl)methanone]
